Assay [1] deals with KPC-2 producing Klebsiella pneumoniae. The assay is described as follows: Broth-microdilution MIC (CLSI M07-A11) against clinical isolates. It counts as cell-based. The arrangement: Drug concentration: unit: mg/L. Particulars: for MIC range / MIC50 / MIC90 / Mode: 12 strains; for MIC range / MIC50 / MIC90: MIC = ceftobiprole concentration (groups A2, B2, C2, D2, E2: inhibitor alone); for Mode: mode of MIC; for antibacterial activity: verdict in words; for Drug concentration: unit not given in Table 3. The source says: (§1) As recommended by CLSI (Clinical and Laboratory Standards Institute) M07-A11 (2018 edition), the Broth-microdilution method is adopted to determine the minimum inhibitory concentration (MIC) of ceftobiprole and zidebactam against clinical isolates. It should be noted that, in the present disclosure, MIC50 refers to the minimum drug concentration that inhibits the growth of 50% of the tested bacteria, and MIC90 refers to the minimum drug concentration that inhibits the growth of 90% of the tested bacteria.
(§2) Antibacterial drug: ceftobiprole, manufacturer: Shenyang Sanjiu Pharmaceutical, content: 92.1%, batch number: YF/BALP141/000. Zidebactam, manufacturer: Target M01 company, batch number: 149661. Zidebactam, as described above, the English name is Zidebactam, and the chemical name is: (2S,5R)-7-oxo-2-(2-((R)-piperidine-3-carbonyl)hydrazine-1-carbonyl)-1,6-diazabicyclo[3.2.1]octan-6-yl hydrogen sulfate.
(§3) Tested strains: a total of 24 genotypic strains producing KPC or OXA β-lactamase. Specifically, the tested strains include 24 strains of Klebsiella pneumoniae, including 12 KPC-2 producing strains and 12 OXA-232 producing strains.
(§4) Quality control strains: Escherichia coli ATCC 25922, (KPC-2 producing) Klebsiella pneumoniae ATCC BAA-1705, and (NDM-1 producing) Klebsiella pneumoniae ATCC BAA-2146.
(§5) Medium: cation-adjusted Mueller-Hinton broth (CAMHB), a product of BBL Company, USA.
(§6) Inoculum size: Pure isolated colonies were adjusted with normal saline to 0.5 McFarland turbidity. After appropriate dilution, the suspension was added to the wells of a 96-well U-bottom microplate (containing 50 µL antibacterial drug solution). The inoculum size was 5 × 10^5 CFU/mL.
(§7) Culture conditions: air environment, 35°C ± 2°C, 16 to 20 hours.
(§8) Preparation of Antibacterial Drug Solution : Ceftobiprole and zidebactam were taken separately, dissolution and dilution were performed according to the antibacterial drug reference to the CLSI standards and the drug package insert, A1 to A6, a total of 6 groups of antibacterial drug solutions, were prepared, among which, group A1 was the control group containing solely the single agent ceftobiprole, and group A2 was the control group containing solely the single agent zidebactam. Different antibacterial drug solutions with ceftobiprole concentrations ranging from 128 mg/L to 0.06 mg/L were respectively included in groups A1 and A3 to A6, and different antibacterial drug solutions with zidebactam concentrations ranging from 128 mg/L to 0.06 mg/L were included in group A2. The specific concentrations within the range of 128 mg/L to 0.06 mg/L in groups A1 to A6 were respectively 128 mg/L, 64 mg/L, 32 mg/L, 16 mg/L, 8 mg/L, 4 mg/L, 2 mg/L, 1 mg/L, 0.5 mg/L, 0.25 mg/L, 0.125 mg/L, or 0.06 mg/L, respectively. Table 1. Concentrations of ceftobiprole/zidebactam contained in the antibacterial drug solutions of groups A1 to A6
(§9) Experimental results: Currently, there are no established CLSI or EUCAST breakpoints for ceftobiprole/β-lactamase inhibitor. Therefore, the antibacterial activity of ceftobiprole/β-lactamase inhibitor is evaluated in accordance with the standards for ceftobiprole. WHONET 5.6 software is used to perform statistical analysis on the results of antibacterial susceptibility test. The fractional inhibitory concentration index (FIC) for the combination of ceftobiprole and zidebactam is calculated according to Equation (1). FIC index = (MIC of drug A in combination)/(MIC of drug A alone) + (MIC of drug B in combination)/(MIC of drug B alone) [formula]
(§10) In Equation (1), drug A is ceftobiprole, and drug B is zidebactam. […] Table 2. In vitro antibacterial activity of ceftobiprole/zidebactam against the tested bacteria in Example 1 […]

The test system of assay [2] is OXA-232 producing Klebsiella pneumoniae. The description is as above. It counts as cell-based. Particulars: for MIC range / MIC50 / MIC90 / Mode: 12 strains; for MIC range / MIC50 / MIC90: MIC = ceftobiprole concentration (groups A2, B2, C2, D2, E2: inhibitor alone); for MIC50 / MIC90: Klebsiella pneumoniae; for Mode: mode of MIC; for antibacterial activity: verdict in words; for Drug concentration: unit not given in Table 3. The arrangement: Drug concentration: unit: mg/L.
From the text: as §1, §2, §3, §4, §5, §6, §7, §8, §9, §10

[3] abbreviates: Klebsiella pneumoniae, read-out: MIC50.
Setting [4] is: Klebsiella pneumoniae, read-out: MIC90.

The record followed here is EP4781993A1, “ANTIBACTERIAL COMPOSITION AND ANTIBACTERIAL DRUG” (Shenzhen China Resources Gosun Pharmaceuticals Co., Ltd., priority 2023, dated 2025).

SMILES strings stand for the structures. Structures can show the parent of a compound that is named as a salt. Where two headings read alike, the source gives them in different places.

Regarding `C[n+]1ccn(C[C@@]2(C)[C@H](C(=O)[O-])N3C(=O)C[C@H]3S2(=O)=O)n1` [Group E2, (2S,3S,5R)-3-methyl-3-[(3-methyltriazol-3-ium-1-yl)methyl]-4,4,7-trioxo-4-amino-6-thia-1-azabicyclo[3.2.0]heptane-2-carboxylate], in assay [1], the MIC range was greater than 128 µg/mL, the Mode was greater than 128 mg/L and the antibacterial activity entry is “no antibacterial activity”. Further, in assay [1] (setting [3]), the MIC50 was no less than 128 µg/mL. Besides, the MIC90 in assay [1] (setting [4]) is no less than 128 µg/mL. In assay [1] (MIC >128 mg/L), the “Cumulative inhibition rate (%)” value is reported as 100%, the “Cumulative number of strains” value was 12 and the Number of strains amounted to 12. Besides, in assay [2], the MIC range is greater than 128 µg/mL, the MIC50 is no less than 128 µg/mL, the MIC90 is no less than 128 µg/mL and the Mode is recorded as greater than 128 mg/L. Also, the antibacterial activity entry in assay [2] is listed as “no antibacterial activity”. In assay [2] (MIC >128 mg/L), the “Cumulative inhibition rate (%)” value came to 100%, the “Cumulative number of strains” value worked out at 12 and the Number of strains was determined as 12.
For the molecule `NCCN[C@H]1CC[C@H](CC(=O)N[C@H]2Cc3cccc(C(=O)O)c3OB2O)CC1` [Group D2, (R)-3-(2-((1r,4R)-4-((2-aminoethyl)amino)cyclohexyl)acetamido)-2-hydroxy-3,4-dihydro-2H-benzo[e][1,2]oxaborinine-8-carboxylic acid], in assay [1], the MIC range was greater than 128 µg/mL, the Mode is listed as greater than 128 mg/L and the antibacterial activity result was “no antibacterial activity”. Besides, the MIC50 in assay [1] (setting [3]) was greater than 128 µg/mL. Besides, the MIC90 in assay [1] (setting [4]) was greater than 128 µg/mL. Also, in assay [1] (MIC >128 mg/L), the “Cumulative inhibition rate (%)” value was found to be 100%, the “Cumulative number of strains” value is listed as 12 and the Number of strains was determined as 12. In assay [2], the MIC range is greater than 128 µg/mL, the MIC50 was greater than 128 µg/mL, the MIC90 is greater than 128 µg/mL and the Mode is listed as greater than 128 mg/L. Moreover, the antibacterial activity entry in assay [2] is “no antibacterial activity”. In addition, in assay [2] (MIC >128 mg/L), the “Cumulative inhibition rate (%)” value came out at 100%, the “Cumulative number of strains” value was 12 and the Number of strains was 12.
As for `Nc1nc(/C(=N/O)C(=O)N[C@@H]2C(=O)N3C(C(=O)O)=C(/C=C4\CCN([C@@H]5CCNC5)C4=O)CS[C@H]23)ns1` [Group A1, (6R,7R)-7-((Z)-2-(5-amino-1,2,4-thiadiazol-3-yl)-2-(hydroxyimino)acetamido)-8-oxo-3-((E)-((R)-2-oxo-[1,3'-bipyrrolidin]-3-ylidene)methyl)-5-thia-1-azabicyclo[4.2.0]oct-2-ene-2-carboxylic acid], the MIC range in assay [1] and in assay [2] was greater than 128 µg/mL in each case. Also, the MIC50 in assay [1] (listed as Group Al) is greater than 128 µg/mL; in assay [1] (setting [3]), no less than 128 µg/mL; in assay [2] it was no less than 128 µg/mL. The MIC90 was greater than 128 µg/mL in assay [1] (listed as Group Al), no less than 128 µg/mL in assay [1] (setting [4]) and no less than 128 µg/mL in assay [2]. The “Cumulative inhibition rate (%)” value in assay [1] (MIC >128 mg/L) and in assay [2] (MIC >128 mg/L) was 100% in each case. Further, the “Cumulative number of strains” value in assay [1] (MIC >128 mg/L) and in assay [2] (MIC >128 mg/L) was 12 throughout. The Number of strains in assay [1] (MIC >128 mg/L) and in assay [2] (MIC >128 mg/L) was 12 in each case. Besides, the Mode in assay [1] and in assay [2] was greater than 128 mg/L in each case. Moreover, the Drug concentration is given as greater than 128 in assay [1] (strain 18-W09-043 (kpn, KPC-2)); greater than 128 in assay [1] (strain 18-W09-045 (kpn, KPC-2)); greater than 128 in assay [1] (strain 18-W09-046 (kpn, KPC-2)); greater than 128 in assay [1] (strain 18-W09-047 (kpn, KPC-2)); greater than 128 in assay [1] (strain 18-W09-049 (kpn, KPC-2)); greater than 128 in assay [1] (strain 18-W09-050 (kpn, KPC-2)). Moreover, the Drug concentration in assay [1] (strain 18-W09-051 (kpn, KPC-2)) is greater than 128; in assay [1] (strain 18-W13-043 (kpn, KPC-2)) it was greater than 128; in assay [1] (strain 18-W13-044 (kpn, KPC-2)), greater than 128; in assay [1] (strain 18-W13-045 (kpn, KPC-2)), greater than 128; in assay [1] (strain 18-W13-046 (kpn, KPC-2)) it was greater than 128; in assay [1] (strain 18-W13-047 (kpn, KPC-2)) it was greater than 128. For the same molecule, the Drug concentration in assay [2] (strain 20-W4-001 (kpn, OXA-232)) is greater than 128; in assay [2] (strain 20-W4-002 (kpn, OXA-232)), greater than 128; in assay [2] (strain 20-W4-003 (kpn, OXA-232)), greater than 128; in assay [2] (strain 20-W4-004 (kpn, OXA-232)), greater than 128; in assay [2] (strain 20-W4-005 (kpn, OXA-232)), greater than 128; in assay [2] (strain 20-W4-007 (kpn, OXA-232)), greater than 128. For the same molecule, the Drug concentration in assay [2] (strain 20-W4-008 (kpn, OXA-232)) was greater than 128; in assay [2] (strain 20-W4-009 (kpn, OXA-232)), greater than 128; in assay [2] (strain 20-W4-010 (kpn, OXA-232)), greater than 128; in assay [2] (strain 20-W4-011 (kpn, OXA-232)), greater than 128; in assay [2] (strain 20-W4-012 (kpn, OXA-232)), greater than 128; in assay [2] (strain 20-W4-013 (kpn, OXA-232)) it was greater than 128. In addition, the antibacterial activity result in assay [1] and in assay [2] was “no antibacterial activity” throughout.
As for `O=C(NC1CCNCC1)[C@@H]1CC[C@@H]2CN1C(=O)N2OS(=O)(=O)O` [Group C2, (1R,2S,5R)-7-oxo-2-(piperidin-4-ylcarbamoyl)-1,6-diazabicyclo[3.2.1]octan-6-yl hydrogen sulfate], the MIC50 in assay [1] (setting [3]) and in assay [2] was greater than 128 µg/mL throughout. The MIC90 in assay [1] (setting [4]) and in assay [2] was greater than 128 µg/mL in each case. Further, the “Cumulative inhibition rate (%)” value in assay [1] (MIC 128 mg/L) is reported as 25%; in assay [1] (MIC >128 mg/L) it was 100%; in assay [2] (MIC 128 mg/L), 41.7%; in assay [2] (MIC >128 mg/L), 100%. The “Cumulative number of strains” value is recorded as 3 in assay [1] (MIC 128 mg/L), 12 in assay [1] (MIC >128 mg/L), 5 in assay [2] (MIC 128 mg/L) and 12 in assay [2] (MIC >128 mg/L). The Number of strains in assay [1] (MIC 128 mg/L) was found to be 3; in assay [1] (MIC >128 mg/L), 9; in assay [2] (MIC 128 mg/L), 5; in assay [2] (MIC >128 mg/L), 7. For the same molecule, the Mode in assay [1] and in assay [2] was greater than 128 mg/L in each case. The antibacterial activity result in assay [1] and in assay [2] was “no antibacterial activity” in each case.

For orientation: MIC50 means the lowest concentration that inhibits either 50% of growth or 50% of the strains tested, depending on the study. As usually defined, the MIC90 is an inhibitory concentration at the 90% level, which refers to growth in some studies and to a panel of isolates in others.
